In patent US11345691B2, “Prodrug modulators of the cystic fibrosis transmembrane conductance regulator protein and methods of use” (AbbVie Global Enterprises Ltd., priority 2019, dated 2022):

Assay: Phase 1 first-in-human single ascending dose pharmacokinetic study (Pharmacokinetic Study 1)
Format: in vivo
Settings: after single oral 250 mg or 500 mg dose of Example 4—Prodrug; healthy adult subjects
Description: Evaluate the PK profile of Example 4, which is a prodrug of (5-{3-amino-5-[4-(trifluoromethoxy)benzene-1-sulfonyl]pyridin-2-yl}-1,3,4-oxadiazol-2-yl)methanol, in healthy human adult subjects.
Two open label Phase 1, first in human studies in adult healthy subjects were conducted to evaluate the safety, tolerability, and pharmacokinetics of single oral doses of Example 1 administered as an oral suspension and prodrug Example 4 capsule, respectively. Subjects were screened and enrolled based on pre-specified criteria for inclusion and exclusion. The safety in subjects was determined by clinical evaluation and by monitoring of laboratory parameters. Blood samples were longitudinally collected at pre-specified time points following the administration of Example 1 or Example 4—Prodrug to measure the plasma concentrations of study drug and determine the pharmacokinetics of Example 1 and Example 4—Prodrug.
For this study the inclusion criteria includes the following: • 1. […]
Plasma concentrations of Example 1 and Example 4—Prodrug were determined using validated methods. The values for the pharmacokinetic parameters of Example 1 or Example 4—Prodrug were determined using noncompartmental methods with WinNonlin Phoenix 8.1.

SMILES: CC(C)[C@H](N)C(=O)OCc1nnc(-c2ncc(S(=O)(=O)c3ccc(OC(F)(F)F)cc3)cc2N)o1 [Example 4, (5-{3-amino-5-[4-(trifluoromethoxy)benzene-1-sulfonyl]pyridin-2-yl}-1,3,4-oxadiazol-2-yl)methyl (2S)-2-amino-3-methylbutanoate]
- Plasma concentrations of intact Example 4—Prodrug: no quantifiable plasma concentrations
